In publication PMC2845622, “An Expanded Self-Antigen Peptidome Is Carried by the Human Lymph As Compared to the Plasma” (PLoS ONE, 2010):
Read-outs that look alike come from different tables or passages of the source. Ends that are not written are not given here.

What was measured:
[1] = biological target: HLA-DR1 (HLA-DRA*0101,-DRB1*0101) (Homo sapiens, UniProt P01903+P01911, A100R/D57E/F55L/F60I/F76Y/I96L/L162R/M171V/P40L/Q125E/R42F/V115G/Y59C); experiment: Competition fluorescence polarization peptide binding assay, HLA-DR1; conditions: competition with Alexa488-HA peptide 25 nM, HLA-DR1 100 nM, 3 days at 37°C, citrate pH 5/5.5; mean of single fit to triplicate values
[2] = biological target: HLA-DR4 (HLA-DRA*0101,-DRB1*0401) (Homo sapiens, UniProt P01903+P01911, A100K/A169T/F76Y/I96L/K127E/L162R/M171V/N62H/P40V/Q125Y/R42H/S133A/S149N/S66Y/V115G/V209L/W38E); experiment: Competition fluorescence polarization peptide binding assay, HLA-DR4 with HLA-DM
[3] = tested on: lymph node T cells of HLA-DR1 or HLA-DR4 transgenic mice; experiment: T cell proliferation (thymidine incorporation) in lymph nodes from peptide immunized mice; assay type: cell-based, mouse; conditions: mice immunized with 100 µg peptide in complete Freund's adjuvant, lymph nodes 14 days later, 72 h culture with titrated peptide
Experimental: Finally we asked whether any of the tight-binding peptides, which also were conserved between mouse and human, could be recognized by peripheral T cells. HLA-DR1 or HLA-DR4 transgenic mice were immunized with 100 µg of several of the extracellular matrix peptides in complete Freund's adjuvant in the flanks and nape of the neck. Draining lymph nodes were collected 14 days later and reactive T cells analyzed by proliferation assay with thymidine incorporation.
HLA-DR1 and HLA-DR4 mice were immunized in the flanks and nape of the neck with 100 micrograms of peptide emulsion in Freund's adjuvant. Two weeks later popliteal and axillary lymph nodes were harvested and tested in proliferation assay. Briefly 6×10^5 cells were seeded in a 96 well plate with or without titrated amount of the immunizing peptide for 72 hours. Thymidine ([…]) was added 18 hours before cell harvesting. Cells were harvested on a Tomtec harvester (Model 94-3-468) and incorporated thymidine counted on a liquid scintillation counter (1450 Microbeta Wallac Trilux).

[4] = competition with Alexa488-HA peptide 25 nM, HLA-DR4 and HLA-DM 100 nM each, 1 mM DTT, 3 days at 37°C, citrate pH 5/5.5, mean of single fit to triplicate values, read-out: DR4 IC50

| Substance | IC50 [1] | IC50 [2, 4] | Proliferative response of draining lymph node T cells to immunizing peptide [3] | IC50 [2] |
| --- | --- | --- | --- | --- |
| Ac-KNFASVQGVSLESG [knFASVQGVSLesg] | 0.42 µM |  |  |  |
| MLQGTSSVLLLWG-NH2 [mLQGTsSVLLlwg] | 62.4 µM | 79.6 µM |  |  |
| MGPMGPRGPPGPA-NH2 [MGPMGPRGPpgpa] |  | > 100 µM |  |  |
| Ac-NGVVGPTGPVGAAGP-NH2 [ngvVGPTGPVGAagp] |  | > 100 µM |  |  |
| Ac-DPFRLQSTSQHN [dpFRLQsTsQHn] |  | 1.3 µM | significant proliferation index |  |
| Ac-NGVVGPTGPVGAAGPA-NH2 [ngVVGPTGPVGaagpa] | 18 µM | > 100 µM |  |  |
| Ac-EDTFAHLTPTPT [edtFAHLTPTPT] | 1.7 µM |  |  |  |
| Ac-PQGFQGNPGEPGE [pqgFQGNPGEPGe] | 0.8 µM | > 100 µM |  |  |
| Ac-SPWIDASTAIDA [spWIDASTAIDa] |  | 60.1 µM |  |  |
| Ac-GALLGAPPPLVPAP [gaLLGAPPPLVpap] | 10.8 µM | 8.8 µM |  |  |
| Ac-PGALLGAPPPLVPAP [pgaLLGAPPPLVpap] |  |  |  | > 100 µM |
| Ac-HQVSINNTAVMQRL [hqVSINNTAVMqrl] | 41.6 µM | 4.7 µM |  |  |
| NYAILRNLQP [nYAILRNLQP] | 54.6 µM | 56.4 µM |  |  |
